Source: patent US20250215002A1, “SOLID FORMS OF TYK2 INHIBITORS AND METHODS OF USE” (Takeda Pharmaceutical Company Limited, priority 2022, published 2025)
“Also recorded” adds a separate entry of the source.

Experiments:
Format in all cases: physicochemical
[1] = Relative humidity stressing (~90% RH), solid form by XRPD; conditions: RT
Description: Select materials were transferred to a vial, which was then uncapped and placed inside ajar containing a saturated aqueous barium chloride solution for ˜90% RH in the headspace (See, Nyqvist, H. E., Saturated Salt Solutions for Maintaining Specified Relative Humidities, Int. J. Pharm. Technol. Prod. Manuf 1983, 4, 47-48, which is incorporated by reference in its entirety). Jars were stored at the stated temperatures.
XRPD patterns were collected with a PANalytical X'Pert PRO MPD or a PANalytical Empyrean diffractometer using an incident beam of Cu radiation produced using a long, fine-focus source. An elliptically graded multilayer mirror was used to focus Cu Kα X-rays through the specimen and onto the detector. Prior to the analysis, a silicon specimen (NIST SRM 640e) was analyzed to verify the observed position of the Si 111 peak is consistent with the NIST-certified position. A specimen of the sample was sandwiched between 3-μm-thick films and analyzed in transmission geometry. A beam-stop, short antiscatter extension, and antiscatter knife edge were used to minimize the background generated by air. Soller slits for the incident and diffracted beams were used to minimize broadening and asymmetry from axial divergence. Diffraction patterns were collected using a scanning position-sensitive detector (X'Celerator) located 240 mm from the specimen and Data Collector software v. […]

[2] = Heating/desolvation experiments (TGA), recovered solids by XRPD
Method: TG analysis was performed using a Mettler-Toledo TGA/DSC3+ analyzer. Temperature calibration was performed using calcium oxalate, indium, tin, and zinc. The sample was placed in an aluminum pan. The pan was hermetically sealed, the lid pierced, then inserted into the TG furnace. A weighed aluminum pan configured as the sample pan was placed on the reference platform. The furnace was heated under nitrogen. Samples were analyzed from 25° C. to 350° C. at 10° C./min. The TGA/DSC3+ instrument was also used for select heating/desolvation experiments, in which solids were heated as described to a given temperature, then recovered and analyzed by XRPD.

[3] = Dynamic vapor sorption (DVS) moisture sorption/desorption; conditions: for Hygroscopicity (description): DVS 5-95% RH
Method: Moisture sorption/desorption data were collected on a Surface Measurement System DVS Intrinsic instrument. The samples were not dried prior to analysis. Sorption and desorption data were collected over a range from 5% to 95% RH in 10% RH increments under a nitrogen purge. The equilibrium criteria used for the analyses were 0.001 dm/dt weight change in 5 minutes with a minimum step time of 30 minutes and maximum equilibration time of 180 minutes with a 3-minute data logging interval. Data were not corrected for the initial moisture content of the samples.

[4] = Stable form screen slurries, resulting solid form by XRPD
Description: Early in the study, slurries were set up for the stable form screen at RT (Table 5, infra). In these experiments, solids of the as-received mixture of Form A+minor Material B were combined with given solvent systems at a solid loading that allowed for undissolved solids to remain, and the mixtures were stirred at ambient conditions. […] Two slurries were selected for isolation at that time to confirm the solid form and chemical composition, while the remaining slurries were covered with foil as a precaution. The slurry in THF, which was observed as a green suspension (darker than many of the other slurries), caused conversion to a new crystalline form, designated as Form C.
Additional slurries were set up at elevated temperatures (˜60° C. and ˜80° C.) and sub-ambient temperatures (2 to 8° C.) as well. […]
XRPD patterns were collected with a PANalytical X'Pert PRO MPD or a PANalytical Empyrean diffractometer using an incident beam of Cu radiation produced using a long, fine-focus source. […] Prior to the analysis, a silicon specimen (NIST SRM 640e) was analyzed to verify the observed position of the Si 111 peak is consistent with the NIST-certified position. A specimen of the sample was sandwiched between 3-μm-thick films and analyzed in transmission geometry. […]

[5] = Slurries of Form C at high water activity, resulting form by XRPD; conditions: 1 d
Method: In addition to the slurries starting with Form A, two slurries of Form C were set up at high water activity conditions to study possible conversion to a hydrate (Table 9, supra). THF/water 50:50 (aw ˜1) and neat water (aw 1) were used.
Suspensions were prepared by adding enough solids to a given solvent at the stated conditions so that undissolved solids were present. The mixture was then agitated (typically by stirring or oscillation) in a sealed vial at a given temperature for an extended period of time. The solids were isolated as described above.

XRPD Result after RH stress ([1]; 6 d)	Hygroscopicity (description) [3]	DVS weight gain 5-95% RH ([3]; sorption 5-95% RH) [%]	Critical water activity (aw) between Form A and Form C ([4]; RT, hydrate Form A versus anhydrous Form C)	XRPD Result after heating ([2]; heat to 270° C., cool to 40° C., heat to 200° C. (TGA))	DVS weight change at 5% RH ([3]; 5% RH) [% weight change at 5% RH]	post-DVS XRPD (solid form after DVS) ([3]; after sorption/desorption cycle 5-95-5% RH)	DVS weight loss 95-5% RH ([3]; desorption 95-5% RH) [% weight loss 95-5% RH]	DVS weight gain 5-95% RH, equivalent moles of water ([3]; sorption 5-95% RH) [mol]	XRPD Result after slurry ([5]; slurry in THF/water 50:50 (aw ~1))	XRPD Result after slurry ([5]; slurry in water (aw 1))	Structure (SMILES)	XRPD Result after heating ([2]; heat to 150° C. (TGA))	XRPD Result after RH stress ([1]; 11 d)	Thermodynamic stability of the form (description) ([4]; between 2° C. and 80° C.)
still consisting of Form A	significant hygroscopicity	4.58	0.69-0.82	–	–	–	–	–	–	–	CNc1cc(Nc2cccn(-c3ccccn3)c2=O)nc2c(C(=O)N[C@@H]3CC[C@H]3OC)cnn12 [Form A]	Full conversion to Form C; also recorded: converted to Form C upon	–	–
–	limited hygroscopicity	1.75	–	Material D	0.00	consistent with Form C	1.80	~0.5	Full conversion to Form A	no form conversion	CNc1cc(Nc2cccn(-c3ccccn3)c2=O)nc2c(C(=O)N[C@@H]3CC[C@H]3OC)cnn12 [Form C]	–	consistent with Form C; also recorded: did not readily convert to a hydrate	likely thermodynamically stable anhydrous/non-solvated form
